Results published in ChEMBL document CHEMBL1681651, “A broad spectrum anticancer nucleoside with selective toxicity against human colon cells in vitro” (2011).

Assays:
Assay type in all cases: functional
NCI/ADR-RES = test: Growth inhibition of human NCI/ADR-RES cells assessed as cell growth at 1 uM after 48 hrs by SRB assay; conditions: read-out: Activity
HL-60(TB) = test: Growth inhibition of human HL-60(TB) cells assessed as cell growth at 10 uM after 48 hrs by SRB assay; conditions: HL-60, 48 h, read-out: Activity
NCI-H322M [1] = test: Growth inhibition of human NCI-H322M cells assessed as cell growth at 10 uM after 48 hrs by SRB assay; conditions: read-out: Activity
COLO 205 = test: Growth inhibition of human COLO205 cells assessed as cell growth at 10 uM after 48 hrs by SRB assay; conditions: COLO 205, 48 h, read-out: Activity
HCT-15 = test: Growth inhibition of human HCT15 cells assessed as cell growth at 10 uM after 48 hrs by SRB assay; conditions: HCT-15, 48 h, read-out: Activity
A549 = test: Growth inhibition of human A549 cells after 48 hrs by […] growth inhibition assay; conditions: A549, 48 h
NCI-H322M [2] = test: Growth inhibition of human NCI-H322M cells after 48 hrs by […] growth inhibition assay
UACC-257 [3] = test: Growth inhibition of human UACC257 cells after 48 hrs by […] growth inhibition assay; conditions: UACC-257, 48 h
786-0 = test: Growth inhibition of human 786-0 cells after 48 hrs by […] growth inhibition assay; conditions: 786-0, 48 h
PC-3 = test: Growth inhibition of human PC3 cells after 48 hrs by […] growth inhibition assay; conditions: PC-3, 48 h, read-out: LC50 (the source's name)
NCI-H460 [4] = test: Growth inhibition of human NCI-H460 cells assessed as cell growth at 0.1 uM after 48 hrs by SRB assay; conditions: NCI-H460, 48 h, read-out: Activity
HCT-116 [5] = test: Growth inhibition of human HCT116 cells assessed as cell growth at 0.1 uM after 48 hrs by SRB assay; conditions: HCT-116, 48 h, read-out: Activity
LOX IMVI [6] = test: Growth inhibition of human LOXIMVI cells assessed as cell growth at 0.1 uM after 48 hrs by SRB assay; conditions: read-out: Activity
OVCAR-3 [7] = test: Growth inhibition of human OVCAR3 cells assessed as cell growth at 0.1 uM after 48 hrs by SRB assay; conditions: OVCAR-3, 48 h, read-out: Activity
CAKI-1 [8] = test: Growth inhibition of human Caki1 cells assessed as cell growth at 0.1 uM after 48 hrs by SRB assay; conditions: CAKI-1, 48 h, read-out: Activity
RXF 393 = test: Growth inhibition of human RXF393 cells assessed as cell growth at 0.1 uM after 48 hrs by SRB assay; conditions: RXF 393, 48 h, read-out: Activity
UO-31 = test: Growth inhibition of human UO31 cells assessed as cell growth at 0.1 uM after 48 hrs by SRB assay; conditions: UO-31, 48 h, read-out: Activity
UACC-257 [9] = test: Growth inhibition of human UACC257 cells assessed as cell growth at 10 uM after 48 hrs by SRB assay; conditions: UACC-257, 48 h, read-out: Activity
MDA-MB-435 [10] = test: Growth inhibition of human MDA-MB-435 cells assessed as cell growth at 10 uM after 48 hrs by SRB assay; conditions: MDA-MB-435, 48 h, read-out: Activity
[11] = Growth inhibition of human […] cells assessed as cell growth at 100 uM after 48 hrs by SRB assay; conditions: read-out: Activity
NCI-H226 = test: Growth inhibition of human NCI-H226 cells assessed as cell growth at 100 uM after 48 hrs by SRB assay; conditions: NCI-H226, 48 h, read-out: Activity
U-251 = test: Growth inhibition of human U251 cells assessed as cell growth at 100 uM after 48 hrs by SRB assay; conditions: U-251, 48 h, read-out: Activity
[12] = Growth inhibition of human […] cells assessed as cell growth at 1 mM after 48 hrs by SRB assay; conditions: read-out: Activity
SNB-19 = test: Growth inhibition of human SNB19 cells assessed as cell growth at 1 mM after 48 hrs by SRB assay; conditions: SNB-19, 48 h, read-out: Activity
SK-MEL-5 = test: Growth inhibition of human SK-MEL-5 cells assessed as cell growth at 1 mM after 48 hrs by SRB assay; conditions: SK-MEL-5, 48 h, read-out: Activity
CAKI-1 [13] = test: Growth inhibition of human Caki1 cells assessed as cell growth at 1 mM after 48 hrs by SRB assay; conditions: CAKI-1, 48 h, read-out: Activity
DU-145 = test: Growth inhibition of human DU145 cells assessed as cell growth at 1 mM after 48 hrs by SRB assay; conditions: DU-145, 48 h, read-out: Activity
MDA-MB-435 [14] = test: Growth inhibition of human MDA-MB-435 cells assessed as cell growth at 1 mM after 48 hrs by SRB assay; conditions: MDA-MB-435, 48 h, read-out: Activity
[15] = Growth inhibition of human […] cells assessed as cell growth at 1 uM after 48 hrs by SRB assay; conditions: read-out: Activity
NCI-H460 [16] = test: Growth inhibition of human NCI-H460 cells assessed as cell growth at 1 uM after 48 hrs by SRB assay; conditions: NCI-H460, 48 h, read-out: Activity
HCT-116 [17] = test: Growth inhibition of human HCT116 cells assessed as cell growth at 1 uM after 48 hrs by SRB assay; conditions: HCT-116, 48 h, read-out: Activity
LOX IMVI [18] = test: Growth inhibition of human LOXIMVI cells assessed as cell growth at 1 uM after 48 hrs by SRB assay; conditions: read-out: Activity
UACC-257 [19] = test: Growth inhibition of human UACC257 cells assessed as cell growth at 1 uM after 48 hrs by SRB assay; conditions: UACC-257, 48 h, read-out: Activity
OVCAR-3 [20] = test: Growth inhibition of human OVCAR3 cells assessed as cell growth at 1 uM after 48 hrs by SRB assay; conditions: OVCAR-3, 48 h, read-out: Activity
OVCAR-8 = test: Growth inhibition of human OVCAR8 cells assessed as cell growth at 1 uM after 48 hrs by SRB assay; conditions: OVCAR-8, 48 h, read-out: Activity
[21] = read-out: LC50 (the source's name)
[22] = read-out: pLC50 (the source's name) (converted)

With `CNC(=O)NC[C@H]1O[C@@H](n2cnc3c(NC(=O)Nc4ccccc4)ncnc32)[C@H](O[Si](C)(C)C(C)(C)C)[C@@H]1CC(=O)N(C)OC` the growth at 1 µM (NCI/ADR-RES) was 109%, the growth at 10 µM (HL-60(TB)) was 84% and the growth at 10 µM (NCI-H322M [1]) was 102%. For the same molecule, the growth at 10 µM (COLO 205) was 90%, the growth at 10 µM (HCT-15) was 93% and the GI50 (A549; read-out: GI50) was 9.35 µM. For the same molecule, the CC50 (A549; [21]) was > 100 µM, the TGI (A549; read-out: TGI) was > 100 µM and the GI50 (A549; read-out: pGI50 (converted)) was 9.33 µM. For the same molecule, the CC50 (A549; [22]) was > 100 µM, the TGI (A549; read-out: pTGI (converted)) was > 100 µM and the GI50 (NCI-H322M [2]; read-out: GI50) was > 100 µM. For the same molecule, the CC50 (NCI-H322M [2]; [21]) was > 100 µM, the TGI (NCI-H322M [2]; read-out: TGI) was > 100 µM and the GI50 (NCI-H322M [2]; read-out: pGI50 (converted)) was > 100 µM. The CC50 (NCI-H322M [2]; [22]) was > 100 µM, the TGI (NCI-H322M [2]; read-out: pTGI) was > 100 µM and the GI50 (UACC-257 [3]; read-out: GI50) was 22.6 µM. For the same molecule, the CC50 (UACC-257 [3]; [21]) was > 100 µM, the TGI (UACC-257 [3]; read-out: TGI) was > 100 µM and the GI50 (UACC-257 [3]; read-out: pGI50 (converted)) was 22.4 µM. For the same molecule, the CC50 (UACC-257 [3]; [22]) was > 100 µM, the TGI (UACC-257 [3]; read-out: pTGI (converted)) was > 100 µM and the GI50 (786-0; read-out: GI50) was 9.01 µM. For the same molecule, the CC50 (786-0; [21]) was > 100 µM, the TGI (786-0; read-out: TGI) was > 100 µM and the GI50 (786-0; read-out: pGI50 (converted)) was 8.91 µM. For the same molecule, the CC50 (786-0; [22]) was > 100 µM, the TGI (786-0; read-out: pTGI (converted)) was > 100 µM and the CC50 (PC-3) was > 100 µM. For the same molecule, the growth at 0.1 µM (NCI-H460 [4]) was 96%, the growth at 0.1 µM (HCT-116 [5]) was 93% and the growth at 0.1 µM (LOX IMVI [6]) was 97%. It also gave a growth at 0.1 µM (OVCAR-3 [7]) of 95%, a growth at 0.1 µM (CAKI-1 [8]) of 85% and a growth at 0.1 µM (RXF 393) of 103%. The growth at 0.1 µM (UO-31) was 89%, the growth at 10 µM (UACC-257 [9]) was 102% and the growth at 10 µM (MDA-MB-435 [10]) was 98%. The growth at 100 µM [11] was -25%, the growth at 100 µM (NCI-H226) was 66% and the growth at 100 µM (U-251) was 37%. The growth at 1000 µM [12] was -16%, the growth at 1000 µM (SNB-19) was 51% and the growth at 1000 µM (SK-MEL-5) was 11%. For the same molecule, the growth at 1000 µM (CAKI-1 [13]) was 47%, the growth at 1000 µM (DU-145) was 16% and the growth at 1000 µM (MDA-MB-435 [14]) was 36%. For the same molecule, the growth at 1 µM [15] was 91%, the growth at 1 µM (NCI-H460 [16]) was 93% and the growth at 1 µM (HCT-116 [17]) was 90%. For the same molecule, the growth at 1 µM (LOX IMVI [18]) was 96%, the growth at 1 µM (UACC-257 [19]) was 103% and the growth at 1 µM (OVCAR-3 [20]) was 107%. It also gave a growth at 1 µM (OVCAR-8) of 106%.
